Source: ChEMBL document CHEMBL1201862, “PubChem BioAssay data set” (2004)
Calls of active or inactive are those of the source. Cut-off read from the data, not from the text of the source: actives have a measured IC50 and inactives only a lower limit.

Molecular target: Envelope glycoprotein gp160 (Human immunodeficiency virus 1, UniProt Q6QLK5)
Experiment: inhibitors of HIV fusion peptide binding, primary screen, biochemical, uHTS, fluorescence dequenching (AID 1986)

Chain of Envelope glycoprotein gp160 (Q6QLK5 whole entry, the tested form may be a part): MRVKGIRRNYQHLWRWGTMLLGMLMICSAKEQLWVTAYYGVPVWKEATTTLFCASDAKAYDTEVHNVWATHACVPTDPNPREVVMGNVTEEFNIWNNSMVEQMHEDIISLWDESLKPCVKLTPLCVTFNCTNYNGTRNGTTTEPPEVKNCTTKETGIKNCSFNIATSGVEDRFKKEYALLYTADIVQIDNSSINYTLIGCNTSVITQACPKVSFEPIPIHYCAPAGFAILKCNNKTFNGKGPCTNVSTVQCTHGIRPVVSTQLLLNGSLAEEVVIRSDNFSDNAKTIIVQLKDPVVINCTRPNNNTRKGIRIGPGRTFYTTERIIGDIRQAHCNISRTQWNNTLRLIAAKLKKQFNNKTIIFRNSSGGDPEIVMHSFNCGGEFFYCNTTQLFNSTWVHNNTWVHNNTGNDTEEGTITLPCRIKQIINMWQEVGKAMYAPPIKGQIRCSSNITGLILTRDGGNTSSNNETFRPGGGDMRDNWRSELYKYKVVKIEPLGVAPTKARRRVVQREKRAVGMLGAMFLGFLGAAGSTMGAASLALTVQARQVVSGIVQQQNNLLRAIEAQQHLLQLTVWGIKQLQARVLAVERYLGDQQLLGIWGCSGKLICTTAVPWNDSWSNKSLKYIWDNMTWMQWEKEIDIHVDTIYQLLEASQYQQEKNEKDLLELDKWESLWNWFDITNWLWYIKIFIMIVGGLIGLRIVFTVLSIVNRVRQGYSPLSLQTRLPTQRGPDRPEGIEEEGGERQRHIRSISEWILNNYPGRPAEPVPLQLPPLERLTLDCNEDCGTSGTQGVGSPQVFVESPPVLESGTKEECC

Row | Structure (SMILES) | IC50
1 | O=C(O)CN1C(=O)/C(=C\c2cc(Br)ccc2OCc2ccc([N+](=O)[O-])cc2)SC1=S | 10.1 µM (active)
2 | Cc1c(CC(=O)O)c(=O)oc2c(C)c3occ(-c4ccc(Br)cc4)c3cc12 | 27.6 µM (active)
3 | Cc1cc(/C=C2\C(=N)N3N=C(S(C)(=O)=O)SC3=NC2=O)c(C)n1Cc1ccccc1 | 26.2 µM (active)
4 | CC(C)(C)c1cc(-c2csc(Nc3ccccc3)[n+]2Cc2ccc(C(=O)O)cc2)cc(C(C)(C)C)c1O | 12.9 µM (active)
